The values that follow come from ChEMBL document CHEMBL1129665, “2-Sulfonyl-4-chloroanilino moiety: a potent pharmacophore for the anti-human immunodeficiency virus type 1 activity of pyrrolyl aryl sulfones” (J Med Chem, 1996).

The subject of experiment [1] is MT4. Put plainly: Selectivity index expressed as the ratio of CC50/ EC50. In kind it is functional, Homo sapiens.
Experiment [2] deals with MT4. Description: Effective concentration against HIV-1 induced cytopathogenicity in MT-4 cells. Format: functional, cell-based. The settings on record: Homo sapiens.
In experiment [3] the test system is MT4. Description: Concentration required to reduce the viability of mock-infected MT-4 cells by 50%. Format: functional. The settings on record: Homo sapiens.

A value given as a limit tells only on which side of the number the result lay.

Usually EC50 stands for the concentration giving half of the maximal effect. Read a high EC50 as a less potent agent. For orientation: CC50 means the concentration giving 50% cytotoxicity. A higher CC50 goes with better tolerance by the cells. Consider `CCOC(=O)c1cccn1S(=O)(=O)c1ccccc1Cl`, for which, in experiment [1], the Ratio came to 5. In experiment [2], this compound displayed an EC50 of 27 µM. For the same compound, in experiment [3], the CC50 was determined as 141 µM.

On to `CCOC(=O)c1cccn1S(=O)(=O)c1cc(Cl)c(Cl)cc1N`, for which, in experiment [1], the Ratio was greater than 25. Moreover, in experiment [2], the 50% effective concentration (EC50) was found to be 12 µM. Moreover, the cytotoxic concentration (CC50) in experiment [3] was greater than 300 µM.

As for `CCOC(=O)c1cccn1S(=O)(=O)c1ccccc1[N+](=O)[O-]`, the Ratio in experiment [1] was greater than 20. Besides, in experiment [2], the EC50 amounted to 15 µM. Besides, in experiment [3], the cytotoxic concentration (CC50) is greater than 300 µM.

Take `CC(C)OC(=O)c1cccn1S(=O)(=O)c1cc(Cl)ccc1[N+](=O)[O-]`: the Ratio in experiment [1] is listed as greater than 10. The same compound yielded a half-maximal effective concentration (EC50) in experiment [2] of 30 µM. For the same compound, the half-maximal cytotoxic concentration (CC50) in experiment [3] was greater than 300 µM.

`O=C(O)c1cccn1S(=O)(=O)c1ccccc1F`: the 50% effective concentration (EC50) in experiment [2] is greater than 300 µM. The same compound came in with a CC50 in experiment [3] greater than 300 µM.

Turning to `CCOC(=O)c1cccn1S(=O)(=O)c1ccc(Cl)cc1N`, the EC50 in experiment [2] was greater than 238 µM. This compound also registered a cytotoxic concentration (CC50) in experiment [3] of 238 µM.

Consider `CC(=O)c1cccn1S(=O)(=O)c1ccccc1[N+](=O)[O-]`, for which the Ratio in experiment [1] worked out at 50. This compound also yielded a concentration giving a half-maximal response (EC50) in experiment [2] of 2 µM. Further, the CC50 in experiment [3] was 100 µM.

With `CCOC(=O)c1cccn1S(=O)(=O)c1ccccc1F`, the Ratio in experiment [1] turned out to be 10. Besides, in experiment [2], the concentration giving a half-maximal response (EC50) was 13 µM. For the same compound, the CC50 in experiment [3] came to 132 µM.

For the compound `O=C(O)c1cccn1S(=O)(=O)c1ccccc1Cl`, in experiment [2], the concentration for a half-maximal effect (EC50) was 247 µM. This compound also displayed a 50% cytotoxic concentration (CC50) in experiment [3] greater than 300 µM.

`O=C(NC1CC1)c1cccn1S(=O)(=O)c1ccccc1F` had an EC50 in experiment [2] greater than 300 µM. Besides, it took 300 µM to reach half-maximal cytotoxicity in experiment [3] (CC50).

Compound `CNc1ccccc1S(=O)(=O)n1cccc1` registered a 50% effective concentration (EC50) in experiment [2] greater than 300 µM. In experiment [3], this compound showed a CC50 greater than 300 µM.

In experiment [2], `O=[N+]([O-])c1ccccc1S(=O)(=O)n1cccc1` registered an EC50 greater than 36 µM. The same compound came in with a CC50 in experiment [3] of 36 µM.

The compound `O=C(OCc1ccccc1)c1cccn1S(=O)(=O)c1cc(Cl)ccc1[N+](=O)[O-]` gave an EC50 in experiment [2] greater than 300 µM. In addition, half-maximal cytotoxicity in experiment [3] (CC50) was put at 300 µM.

Regarding `CCOC(=O)c1cccn1S(=O)(=O)c1ccc(Cl)cc1[N+](=O)[O-]`, the Ratio in experiment [1] is greater than 20. For the same compound, in experiment [2], a half-maximal response (EC50) required 15 µM. Besides, the half-maximal cytotoxic concentration (CC50) in experiment [3] is greater than 300 µM.

For the compound `COC(=O)c1cccn1S(=O)(=O)c1ccccc1N`, the Ratio in experiment [1] is given as greater than 14. In experiment [2], this compound came in with an EC50 of 22 µM. In addition, in experiment [3], the CC50 is greater than 300 µM.

Consider `Nc1cc(Cl)ccc1S(=O)(=O)n1ccc2ccccc21`, for which the EC50 in experiment [2] was greater than 37 µM. For the same compound, the CC50 in experiment [3] came out at 37 µM.

In experiment [2], `O=C(NC1CCCCC1)c1cccn1S(=O)(=O)c1ccccc1F` came in with an EC50 greater than 300 µM. This compound gave a CC50 in experiment [3] of 300 µM.

`CCN(CC)CCOC(=O)c1cccn1S(=O)(=O)c1cc(Cl)ccc1[N+](=O)[O-]` gave a concentration giving a half-maximal response (EC50) in experiment [2] greater than 30 µM. In experiment [3], this compound registered a CC50 of 30 µM.

Consider `Nc1ccc(Cl)cc1S(=O)(=O)n1cccc1C(=O)OCc1ccccc1`, for which the Ratio in experiment [1] is given as greater than 2. Also, in experiment [2], the EC50 turned out to be 150 µM. Further, the cytotoxic concentration (CC50) in experiment [3] is greater than 300 µM.

In turn, `O=[N+]([O-])c1cc(Cl)ccc1S(=O)(=O)n1cccc1` had an EC50 in experiment [2] greater than 15 µM. The same compound registered a 50% cytotoxic concentration (CC50) in experiment [3] of 15 µM.

`CCOC(=O)c1cccn1S(=O)(=O)c1cc(Cl)ccc1NC` came in with a concentration giving a half-maximal response (EC50) in experiment [2] greater than 300 µM. In experiment [3], the CC50 is 300 µM.

`CCCCNc1ccc(Cl)cc1S(=O)(=O)n1cccc1C(=O)OCC` returned an EC50 in experiment [2] greater than 300 µM. The compound further displayed a CC50 in experiment [3] greater than 300 µM.

In the case of `Cc1cn([C@H]2C[C@H](N=[N+]=[N-])[C@@H](CO)O2)c(=O)[nH]c1=O` [ZIDOVUDINE], in experiment [1], the Ratio was greater than 2000. This compound also came in with a half-maximal cytotoxic concentration (CC50) in experiment [3] greater than 20 µM.

Consider `Nc1ccccc1S(=O)(=O)n1ccc2ccccc21`, for which, in experiment [1], the Ratio is given as 5. The compound further yielded an EC50 in experiment [2] of 11 µM. The compound also yielded a 50% cytotoxic concentration (CC50) in experiment [3] of 58 µM.

For `Nc1ccccc1S(=O)(=O)n1cccc1`, the EC50 in experiment [2] is greater than 228 µM. The compound further had a half-maximal cytotoxic concentration (CC50) in experiment [3] of 228 µM.

In experiment [2], `COC(=O)c1cccn1S(=O)(=O)c1ccc(Cl)cc1[N+](=O)[O-]` yielded an EC50 greater than 300 µM. The compound also displayed a CC50 in experiment [3] greater than 300 µM.

Take `CCOC(=O)c1cc2ccccc2n1S(=O)(=O)c1cc(Cl)ccc1N`: the Ratio in experiment [1] is listed as 28. This compound also showed an EC50 in experiment [2] of 1.8 µM. The compound further gave a CC50 in experiment [3] of 50 µM.

Turning to `Nc1ccc(Cl)cc1S(=O)(=O)n1cccc1`, in experiment [1], the Ratio is reported as 2. For the same compound, in experiment [2], the EC50 turned out to be 95 µM. Moreover, in experiment [3], the 50% cytotoxic concentration (CC50) came to 165 µM.

With `CCNc1ccc(Cl)cc1S(=O)(=O)n1cccc1C(=O)OCC`, the EC50 in experiment [2] is greater than 300 µM. In experiment [3], this compound gave a half-maximal cytotoxic concentration (CC50) of 300 µM.

Regarding `CCOC(=O)c1cccn1S(=O)(=O)c1ccccc1N`, the Ratio in experiment [1] was greater than 30. The compound also had an EC50 in experiment [2] of 10 µM. Moreover, in experiment [3], the CC50 is greater than 300 µM.

Take `Nc1ccc(Cl)c(S(=O)(=O)n2cccc2)c1`: the EC50 in experiment [2] is greater than 91 µM. The compound further yielded a CC50 in experiment [3] of 91 µM.

In experiment [2], `C=CCOC(=O)c1cccn1S(=O)(=O)c1cc(Cl)ccc1[N+](=O)[O-]` returned a half-maximal effective concentration (EC50) greater than 4.3 µM. In experiment [3], this compound returned a CC50 of 4.3 µM.

For the compound `COC(=O)c1cccn1S(=O)(=O)c1cc(Cl)ccc1[N+](=O)[O-]`, in experiment [1], the Ratio amounted to 1.2. In experiment [2], this compound gave a half-maximal effective concentration (EC50) of 10 µM. This compound also registered a CC50 in experiment [3] of 12 µM.

`CCOC(=O)c1cccn1S(=O)(=O)c1cc(N)ccc1Cl` showed an EC50 in experiment [2] greater than 72 µM. Also, half-maximal cytotoxicity in experiment [3] (CC50) was put at 72 µM.

Regarding `O=[N+]([O-])c1ccc(Cl)c(S(=O)(=O)n2cccc2)c1`, in experiment [2], the EC50 was greater than 2 µM. The compound further came in with a half-maximal cytotoxic concentration (CC50) in experiment [3] of 2 µM.

In turn, `CCOC(=O)c1cccn1S(=O)(=O)c1cc(Cl)ccc1[N+](=O)[O-]` had an EC50 in experiment [2] greater than 12 µM. This compound also gave a half-maximal cytotoxic concentration (CC50) in experiment [3] of 12 µM.

As to `O=[N+]([O-])c1ccc(Cl)c(S(=O)(=O)n2ccc3ccccc32)c1`, the EC50 in experiment [2] was greater than 3 µM. In addition, the half-maximal cytotoxic concentration (CC50) in experiment [3] was 3 µM.

`CCOC(=O)c1cccn1S(=O)(=O)c1cc(Cl)c(Cl)cc1[N+](=O)[O-]`: in experiment [2], the EC50 is greater than 5 µM. This compound displayed a CC50 in experiment [3] of 5 µM.

Compound `CCCOC(=O)c1cccn1S(=O)(=O)c1cc(Cl)ccc1[N+](=O)[O-]` yielded an EC50 in experiment [2] greater than 10 µM. Moreover, the CC50 in experiment [3] stood at 10 µM.

In turn, `Nc1ccc(Cl)cc1S(=O)(=O)n1ccc2ccccc21` showed an EC50 in experiment [2] of 1 µM. Further, the CC50 in experiment [3] was determined as 1 µM.

As for `O=[N+]([O-])c1ccc(Cl)cc1S(=O)(=O)n1cccc1`, the EC50 in experiment [2] is greater than 2 µM. Moreover, it took 2 µM to reach half-maximal cytotoxicity in experiment [3] (CC50).

In the case of `CCOC(=O)c1cc2ccccc2n1S(=O)(=O)c1cc(Cl)ccc1[N+](=O)[O-]`, the EC50 in experiment [2] was greater than 100 µM. Further, the half-maximal cytotoxic concentration (CC50) in experiment [3] was greater than 100 µM.

Consider `O=CNNC(=O)c1cccn1S(=O)(=O)c1ccccc1F`, for which, in experiment [2], the half-maximal effective concentration (EC50) was greater than 300 µM. In experiment [3], half-maximal cytotoxicity (CC50) was put at 300 µM.

The compound `O=[N+]([O-])c1ccc(Cl)cc1S(=O)(=O)n1ccc2ccccc21` displayed an EC50 in experiment [2] greater than 2 µM. The compound also came in with a half-maximal cytotoxic concentration (CC50) in experiment [3] of 2 µM.

Take `CCOC(=O)c1cccn1S(=O)(=O)c1cc([N+](=O)[O-])ccc1Cl`: the EC50 in experiment [2] is greater than 6 µM. Besides, in experiment [3], the CC50 turned out to be 6 µM.

`COC(=O)c1cccn1S(=O)(=O)c1ccc(Cl)cc1N`: the EC50 in experiment [2] was greater than 248 µM. In experiment [3], this compound had a CC50 of 248 µM.

With `O=[N+]([O-])c1cc(Cl)ccc1S(=O)(=O)n1ccc2ccccc21`, the half-maximal effective concentration (EC50) in experiment [2] is greater than 8 µM. In experiment [3], this compound registered a half-maximal cytotoxic concentration (CC50) of 8 µM.

Compound `COC(=O)c1cccn1S(=O)(=O)c1cc([N+](=O)[O-])ccc1Cl` showed an EC50 in experiment [2] greater than 12 µM. Also, it took 12 µM to reach half-maximal cytotoxicity in experiment [3] (CC50).

In experiment [2], `Nc1cc(Cl)ccc1S(=O)(=O)n1cccc1` displayed a 50% effective concentration (EC50) greater than 75 µM. The same compound came in with a CC50 in experiment [3] of 75 µM.
